Reference: US20140242093A1, “METHODS AND COMPOSITIONS FOR MODULATING THE INNATE IMMUNE RESPONSE AND/OR MYOGENESIS IN A MAMMALIAN SUBJECT” (FRED HUTCHINSON CANCER RESEARCH CENTER, priority 2011, published 2014)

Tested on: control human primary myoblasts
Test: Expression microarray of primary myoblasts transduced with lentivirus carrying DUX4-fl, DUX4-s or GFP
Experimental: Primary human myoblasts were collected and cultured as previously described (Snider et al., 2010). Primary myoblasts were maintained at or below 70% confluency for proliferation. For differentiation, cells were allowed to reach 95-100% confluency in growth medium. Once confluency was reached, the cells were changed to differentiation medium (F10 media supplemented with 1% horse serum, 10 μg/mL insulin, and 10 μg/mL transferrin, penicillin/streptomycin) and maintained for 4 days. Human RD cells were grown in DMEM in 10% bovine calf serum (Hyclone) and penicillin/streptomycin. The primary myoblasts were transduced with lentivirus carrying DUX-fl, DUX4- or GFP (MOI=15).
Expression microarrays were performed on the transduced cells at 24 hours after transduction as follows. […] Samples were analyzed by Illumina Human Whole Genome microarrays. Probe intensities were corrected, normalized, and summarized by the Lumi package of Bioconductor (Du et al., 2008). Differentially expressed genes were identified by the LIMMA package of Bioconductor (Wettenhall and Smyth, 2004). Gene set enrichment analysis (GSEA) was performed using the Bioconductor GOstats package (Falcon and Gentleman, 2007).

What does the source list for “DUX4-fl: full-length DUX4 protein (SEQ ID NO:110), expressed from lentiviral or pCS2 vectors or in vitro translated”?
CHI3L2 expression fc (Refseq NM_004000.2, cultured human skeletal muscle): −2.705; IRF7 expression fc (Refseq NM_004029.2, cultured human skeletal muscle): −1.959; CRY1 expression fc (Refseq NM_004075.2): 2.342; PSPN expression fc (Refseq NM_004158.2): 2.203; BEST1 fc (Refseq NM_004183.2): −1.101; UBE2L6 expression fc (Refseq NM_004223.3, cultured human skeletal muscle): −3.085; fc of STK17B (expression array) (Refseq NM_004226.2): −0.05995; fc of SLC9A3R1 (expression array) (Refseq NM_004252.2): −1.036; BST2 expression fc (Refseq NM_004335.2, cultured human skeletal muscle): −4.248; CREB1 fc (Refseq NM_004379.2): −1.133; fc of HOXB7 (expression array) (Refseq NM_004502.3): −1.037; SP110 expression fc (Refseq NM_004510.2, cultured human skeletal muscle): −2.941; PSPH fc (Refseq NM_004577.3): −1.164; XPC expression fc (Refseq NM_004628.3, cultured human skeletal muscle): −2.458; PABPN1 expression fc (Refseq NM_004643.1): 2.567; MAP3K6 fc (Refseq NM_004672.3): −1.074; fc of SLC16A5 (expression array) (Refseq NM_004695.2): −1.025; fc of SFRS2IP (expression array) (Refseq NM_004719.2): −0.0565; fc of ARHGEF2 (expression array) (Refseq NM_004723.2): −1.057; TIAF1 fc (Refseq NM_004740.3): −1.123; NOLC1 expression fc (Refseq NM_004741.1): 2.439; SLIT2 expression fc (Refseq NM_004787.1): 2.369; LPXN fc (Refseq NM_004811.1): −1.124; PEX16 fc (Refseq NM_004813.1): −1.101; C9orf61 expression fc (Refseq NM_004816.2): 2.614; MED26 expression fc (Refseq NM_004831.3): 2.1; fc of GSTO1 (expression array) (Refseq NM_004832.1): −1.03; fc of LITAF (expression array) (Refseq NM_004862.2): −0.5892; fc of SCAMPI (expression array) (Refseq NM_004866.4): −0.4749; fc of APBA3 (expression array) (Refseq NM_004886.3): −1.032; SERPINI1 expression fc (Refseq NM_005025.3): 1.809; TRIM25 expression fc (Refseq NM_005082.4, cultured human skeletal muscle): −2.513; SFRS17A expression fc (Refseq NM_005088.2): 2.456; ISG15 expression fc (Refseq NM_005101.1, cultured human skeletal muscle): −4.311; MVP fc (Refseq NM_005115.3): −1.178; MED13 expression fc (Refseq NM_005121.2): 1.817; fc of REC8 (expression array) (Refseq NM_005132.2): −1.007; ATP6V0A1 fc (Refseq NM_005177.3): −1.152; CEBPB expression fc (Refseq NM_005194.2, cultured human skeletal muscle): −2.441; ETS1 fc (Refseq NM_005238.2): −1.067; FAT1 fc (Refseq NM_005245.3): −1.138; GPR37 expression fc (Refseq NM_005302.2): 2.121; H1F0 expression fc (Refseq NM_005318.2, cultured human skeletal muscle): −2.434; HSPA1A expression fc (Refseq NM_005345.4): 3.54; HSPA1B expression fc (Refseq NM_005346.3): 3.402; NEFM expression fc (Refseq NM_005382.1): 2.925; SHMT2 fc (Refseq NM_005412.4): −1.089; STAT2 expression fc (Refseq NM_005419.2, cultured human skeletal muscle): −2.69; EOMES expression fc (Refseq NM_005442.2): 2.897; TOM1 fc (Refseq NM_005488.1): −1.129; HLA-B expression fc (Refseq NM_005514.5, cultured human skeletal muscle): −2.752; HLA-E fc (Refseq NM_005516.4): −1.11; IFI16 expression fc (Refseq NM_005531.1, cultured human skeletal muscle): −2.008; IFI27 expression fc (Refseq NM_005532.3, cultured human skeletal muscle): −6.527; IFI35 expression fc (Refseq NM_005533.2, cultured human skeletal muscle): −3.847; IRS1 fc (Refseq NM_005544.1): −1.157; KLC1 expression fc (Refseq NM_005552.4): 1.967; RGS4 expression fc (Refseq NM_005613.3): 1.951; SGK expression fc (Refseq NM_005627.2): 2.04; TAF4B expression fc (Refseq NM_005640.1): 1.87; fc of TERF2 (expression array) (Refseq NM_005652.2): −1.02; fc of REEP5 (expression array) (Refseq NM_005669.4): −0.3556; fc of HIPK3 (expression array) (Refseq NM_005734.3): −0.2982; ARIH1 expression fc (Refseq NM_005744.2): 2.243; fc of NAMPT (expression array) (Refseq NM_005746.2): −0.5767; LHFPL2 fc (Refseq NM_005779.1): −1.13; STX6 expression fc (Refseq NM_005819.4): 2.053; fc of RCAN2 (expression array) (Refseq NM_005822.2): −0.5968; MFGE8 fc (Refseq NM_005928.1): −1.15; MT1X expression fc (Refseq NM_005952.2, cultured human skeletal muscle): −2.444; SNAI1 expression fc (Refseq NM_005985.2): 1.943; RBM12 expression fc (Refseq NM_006047.4): 2.013; TRIM22 expression fc (Refseq NM_006074.3, cultured human skeletal muscle): −2.581; CBARA1 expression fc (Refseq NM_006077.2): 2.064; TUBB2C expression fc (Refseq NM_006088.5): 1.948; LASP1 fc (Refseq NM_006148.1): −1.152; NFE2L2 fc (Refseq NM_006164.2): −1.093; OAS3 expression fc (Refseq NM_006187.2, cultured human skeletal muscle): −4.029; fc of PDGFRL (expression array) (Refseq NM_006207.1): −0.6227; PSME1 fc (Refseq NM_006263.2): −1.138; STK3 expression fc (Refseq NM_006281.2): 2.186; THY1 fc (Refseq NM_006288.2): −1.067; TNFAIP3 expression fc (Refseq NM_006290.2, cultured human skeletal muscle): −2.897; HSPB3 expression fc (Refseq NM_006308.1): 1.914; NXF1 expression fc (Refseq NM_006362.4): 4.233; fc of ATG7 (expression array) (Refseq NM_006395.1): −1.016; SLC34A2 expression fc (Refseq NM_006424.2): 5.514; TXNRD2 fc (Refseq NM_006440.3): −1.104; fc of MXD4 (expression array) (Refseq NM_006454.2): −1.035; ARID3B expression fc (Refseq NM_006465.2): 2.024; TXNIP expression fc (Refseq NM_006472.2, cultured human skeletal muscle): −1.9; ZNF217 expression fc (Refseq NM_006526.2): 4.114; FAM189B fc (Refseq NM_006589.2): −1.075; fc of TCFL5 (expression array) (Refseq NM_006602.2): −1.053; RFPL2 expression fc (Refseq NM_006605.1): 7.293; fc of NES (expression array) (Refseq NM_006617.1): −0.08904; HSPH1 expression fc (Refseq NM_006644.2): 2.217; HCP5 fc (Refseq NM_006674.2): −1.099; UGP2 fc (Refseq NM_006759.3): −1.169; IFI44L expression fc (Refseq NM_006820.1, cultured human skeletal muscle): −5.117; fc of CKAP4 (expression array) (Refseq NM_006825.2): −1.006; fc of ILVBL (expression array) (Refseq NM_006844.3): −1.015; KDELR3 fc (Refseq NM_006855.2): −1.163; fc of GMPR (expression array) (Refseq NM_006877.2): −0.4519; SLC2A3 expression fc (Refseq NM_006931.1): 3.385; fc of HSPA13 (expression array) (Refseq NM_006948.4): −0.1756; ZBTB25 fc (Refseq NM_006977.2): −1.113; ADAMTS1 fc (Refseq NM_006988.3): −1.164; C1Oorf10 expression fc (Refseq NM_007021.2, cultured human skeletal muscle): −2.641; fc of DNAJB4 (expression array) (Refseq NM_007034.3): −1.024; KATNA1 expression fc (Refseq NM_007044.2): 1.819; UBL3 expression fc (Refseq NM_007106.2): 2.164; TESK2 expression fc (Refseq NM_007170.2): 1.787; NUP50 expression fc (Refseq NM_007172.3): 2.324; fc of PACSIN2 (expression array) (Refseq NM_007229.1): −1.038; DUSP12 expression fc (Refseq NM_007240.1): 2.249; fc of MGLL (expression array) (Refseq NM_007283.5): −1.033; STAT1 expression fc (Refseq NM_007315.2, cultured human skeletal muscle): −2.915; fc of LGALS9 (expression array) (Refseq NM_009587.2): −0.8549; FRAT2 expression fc (Refseq NM_012083.2): 1.918; fc of CDC42EP4 (expression array) (Refseq NM_012121.4): −1.034; CHORDC1 expression fc (Refseq NM_012124.1): 1.805; CLDN14 expression fc (Refseq NM_012130.2): 3.148; TFIP11 expression fc (Refseq NM_012143.2): 3.191; SIRT1 expression fc (Refseq NM_012238.3): 1.844; KCNH4 expression fc (Refseq NM_012285.1): 2.749; BAMBI expression fc (Refseq NM_012342.2): 2.783; fc of TINF2 (expression array) (Refseq NM_012461.1): −1.025; CD24 expression fc (Refseq NM_013230.2): 2.624; ZNF214 expression fc (Refseq NM_013249.1): 2.219; TBK1 fc (Refseq NM_013254.2): −1.08; MYLIP expression fc (Refseq NM_013262.3): 1.824; TRA2A expression fc (Refseq NM_013293.3): 1.978; fc of EEF2K (expression array) (Refseq NM_013302.3): −1.058; SERTAD1 expression fc (Refseq NM_013376.3): 2.002; fc of SLC25A24 (expression array) (Refseq NM_013386.3): −0.2843; fc of CLIC4 (expression array) (Refseq NM_013943.1): −0.9976; BZW2 expression fc (Refseq NM_014038.1): 2.677; LRP10 fc (Refseq NM_014045.3): −1.102; fc of FAM156A (expression array) (Refseq NM_014138.3): −1.027; SMARCAL1 fc (Refseq NM_014140.2): −1.157; CCDC59 expression fc (Refseq NM_014167.2): 1.892; fc of TDRD7 (expression array) (Refseq NM_014290.1): −1.062; DDX58 expression fc (Refseq NM_014314.3, cultured human skeletal muscle): −2.466; PDSS1 expression fc (Refseq NM_014317.3): 2.003; AMACR expression fc (Refseq NM_014324.4): 2.743; PPP1R15A expression fc (Refseq NM_014330.2): 2.08; TSPAN13 expression fc (Refseq NM_014399.3): 2.117; APOBEC3C fc (Refseq NM_014508.2): −1.108; EVC expression fc (Refseq NM_014556.2, cultured human skeletal muscle): −1.954; SCHIP1 expression fc (Refseq NM_014575.2, cultured human skeletal muscle): −2.093; SLC40A1 expression fc (Refseq NM_014585.3): 1.859; CDR2L fc (Refseq NM_014603.1): −1.119; TAX1BP3 fc (Refseq NM_014604.2): −1.072; CTR9 expression fc (Refseq NM_014633.3): 2.402; SLC25A44 expression fc (Refseq NM_014655.1): 2.017; MTSS1 fc (Refseq NM_014751.4): −1.159; LBA1 fc (Refseq NM_014831.1): −1.121; KIAA0020 expression fc (Refseq NM_014878.4): 2.017; ABLIM3 fc (Refseq NM_014945.2): −1.174; WDR47 expression fc (Refseq NM_014969.4): 2.277; ARC expression fc (Refseq NM_015193.3): 1.802
